Reference: patent publication US12187762B2, “Dithiolsaccharide mucolytic agents and uses thereof” (The Regents of the University of California, priority 2018, dated 2025)
Entries after “also recorded” stand apart in the source; their conditions may differ.

Key:
C57BL/6 mice = assay: In vivo safety assessment, mouse intranasal (pulmonary) delivery model
Description: Body weights were recorded on days 1, 8 and 15. On day 15, BAL was performed and used for total and differential cell counts. Mice were euthanized on day 15, and whole lung was fixed in 10% formalin, embedded in paraffin, sectioned and H&E stained for subsequent injury scoring by board-certified lung pathologist (Table 1B provides scoring criteria). Scoring was done blindly. Sera were obtained from blood collected by cardiac puncture and tested for renal and metabolic function outcomes.
Table 1. […] Safety outcomes in mouse pulmonary delivery model (A). […] Outcome measures of safety included body weight, renal function tests, measures of lung injury in bronchoalveolar lavage (BAL), and histologic appearance of tissue sections from formalin-fixed and paraffin-embedded lungs.

[1] = tested on: primary human airway epithelial cells (AECs); assay: G6PD release cytotoxicity assay in airway epithelial cells at air-liquid interface; format: cell-based; settings: Compound 1 disodium salt, apical exposure 1 hr at 37° C. at 5, 25 and 50 mM, 6 hr recovery; compared with PBS control
Description: Briefly, primary tracheobronchial epithelial cells from ten donors were expanded in culture and differentiated at air-liquid interface for 21 days. Detailed cell culture protocols for airway epithelial cells can be found in Lachowicz-Scroggins et al, Cell Discov, 4, Article 7, 2018 and Widdicombe et al, Biotechniques, 39, 249-255, 2005. Compound 1 (disodium salt) was dissolved in PBS, added to apical surface of the cells at 5, 25 and 50 mM and left for 1 hr at 37° C. PBS was negative control. The apical and basolateral surfaces were washed with PBS, fresh media was added to basolateral side for 6 hr recovery period and collected for G6PD measurements. One control filter was harvested for full lysis with NP-40 lysis buffer to measure total G6PD content in cell lysates.
G6PD (glucose 6-phosphase dehydrogenase) release is a common method of assessing the extent of cellular damage or death. G6PD was measured using Vybrant® Cytotoxicity Assay Kit (ThermoFisher Scientific) and expressed as percent released relative to the total G6PD content.

[2] = Cone-and-plate rheology of elastic modulus (G′) in thiolated hydrogel substrate; settings: for concentration needed to cause a 40% decrease in the G′ of the hydrogel (ΔG′=−40%): 30 min incubation, dose response 0.5-10 mM
Description: 2.2. Preparation of thiolated hyaluronic acid hydrogel as a model substrate: Thiolated hyaluronic acid hydrogel (Glycosil®, ESI-BIO) was solubilized in 10% DMSO/75 mM NaCl/sodium phosphate pH 7.4 buffer, prepared using degassed water. Aliquots of 250 microliter of gel solution were distributed to 1.5 ml centrifuge tubes, sealed, and incubated overnight (˜18 hours) at room temperature to allow for slow oxidation and cross-linking of the hydrogel. Gels formed by this protocol typically yielded elastic moduli of 20-30 Pa, measured by cone-and-plate rheology.
2.3. Rheological measurements: A rheometer was employed to determine the effect of the compounds disclosed herein on the elastic modulus (G′) of ex vivo human sputum or model hydrogel substrate. The terms “elastic modulus”, G′, and the like refer to the elastic modulus as known in the art. Rheological measurements were made with AR2000 or DHR cone-and-plate rheometer (TA instruments), as known in the art. For sputum samples, ˜0.8 mL was used per assay, with 40 mm 2° geometry. For thiolated hydrogel samples, 0.25 mL was used per assay, with 40 mm ½° geometry. For timesweep recordings, a solvent trap with water as solvent was employed to minimize drying. Test compounds were dissolved in water and added at 10% v/v, to result in the final concentration of interest in the sample. The effect of test compound was measured by taking measurements every 2 min, for a period of 30 min. Normalized ratio % G′ was calculated by dividing the post treatment measurement of G′ at particular timepoint by pretreatment measurement of G′. Percent change in elastic modulus (% ΔG′) was calculated by comparing the measurement at 30 min to the initial pretreatment baseline.
Rheological measurements with Compound 1, Compound 5, Compound 9 and N-acetylcysteine at concentrations between 0.5-10 mM were conducted in order to understand the dose dependence of mucolytic efficacy on concentration of the dithiol test agents (FIG. 3). Effective concentration that causes 40% change in G′ for each test agent was determined. All dithiols tested cause 40% change in G′ at concentrations <1 mM, while NAC requires ˜8-10× higher dose to achieve the same mucolytic effect.
Mucolytic efficacy data was collected in cross-linked thiolated hydrogel model system for multiple enabled dithiolsaccharide compounds and N-acetylcysteine at 5 mM.

[3] = mean ± SEM, BAL on day 15, intranasal 30 μL, 25 mM, 10 doses
[4] = mean ± SEM, serum, intranasal 30 μL, 25 mM, 10 doses

OC1C(O)[C@H](S)OC(CS)[C@@H]1O (stereo partly drawn) [Compound 1, 1,6-dithio-6-deoxy-β-D-galactopyranose]
systemic or lung toxicity compared to control saline (C57BL/6 mice; intranasal 30 μL of 25 mM daily, 10 doses over 2 weeks, N=10 mice): did not cause any discernible systemic or lung toxicity
BAL Eosinophil % (C57BL/6 mice; [3]): 0 ± 0%
BAL Lymphocyte % (C57BL/6 mice; [3]): 0 ± 0.1%
BAL Macrophage % (C57BL/6 mice; [3]): 100 ± 0.1%
BAL Neutrophil % (C57BL/6 mice; [3]): 0 ± 0%
BAL total cell count (C57BL/6 mice; [3]): (37.3 ± 7) × 10^4
Lung Injury Score (C57BL/6 mice; mean ± SEM, blinded histology score 0-4 per Table 1B, day 15, intranasal 30 μL, 25 mM, 10 doses): 0.4 ± 0.16
Body weight (C57BL/6 mice; mean ± SEM, intranasal 30 μL, 25 mM, 10 doses over 2 weeks): 18.6 ± 0.32 g
Blood urea nitrogen (renal function test) (C57BL/6 mice; [4]): 25 ± 1.3 mg/dL
Creatinine (renal function test) (C57BL/6 mice; [4]): 0.15 ± 0.01 mg/dL
% release of G6PD (cell toxicity) [1]: minimal and similar to that of the Phosphate Buffered Saline (PBS) control; also recorded: low and similar to the PBS control
concentration needed to cause a 40% decrease in the G′ of the hydrogel (ΔG′=−40%) [2]: 0.7 mM

OC1C(O)[C@H](O)C(CS)O[C@@H]1O[C@H]1OC(CS)[C@@H](O)C(O)C1O (stereo partly drawn) [Compound 5, 6,6′-dithio-6,6′-dideoxy-α,α-trehalose]
concentration needed to cause a 40% decrease in the G′ of the hydrogel (ΔG′=−40%) [2]: 1.0 mM

CO[C@]1(CS)O[C@H](CS)C(O)C1O (stereo partly drawn) [Compound 9, Methyl-1,6-dithio-1,6-dideoxy-β-D-fructofuranoside]
concentration needed to cause a 40% decrease in the G′ of the hydrogel (ΔG′=−40%) [2]: 0.7 mM

CC(=O)N[C@@H](CS)C(=O)O [NAC, N-acetylcysteine, reference compound]
concentration needed to cause a 40% decrease in the G′ of the hydrogel (ΔG′=−40%) [2]: 8 mM
dose of NAC relative to dithiols needed to achieve the same mucolytic effect (40% change in G′) ([2]; fold higher dose than dithiols): 8-10 ×
